Three compounds from patent publication US12319693B2, “Crystalline forms of CFTR modulators” (Vertex Pharmaceuticals Incorporated, priority 2019, dated 2025) can be followed below.

Series [1] is described as follows: Relative stability of polymorphic / solvate forms. It counts as physicochemical. Conditions: water activity ≤0.95 at ambient temperature.
Series [2] addresses CFTR-mediated chloride transport (Homo sapiens, UniProt P13569). Briefly: Membrane potential dye assay in human intestinal epithelial enteroid cells. It counts as cell-based. Conditions: 18-24 h incubation, acute 10 μM forskolin + 300 nM Compound III. The procedure:
Base medium (ADF+++) consisted of Advanced DMEM/Ham's F12, 2 mM Glutamax, 10 mM HEPES, 1μ/ml penicillin/streptomycin.
Intestinal enteroid maintenance medium (IEMM) consisted of ADF+++, 1×B27 supplement, 1×N2 supplement, 1.25 mM N-acetyl cysteine, 10 mM Nicotinamide, 50 ng/mL hEGF, 10 nM Gastrin, 1 μg/mL hR-spondin-1, 100 ng/mL hNoggin, TGF-b type 1 inhibitor A-83-01, 100 μg/mL Primocin, 10 μM P38 MAPK inhibitor SB202190.
Bath 1 Buffer consisted of 1 mM MgCl2, 160 mM NaCl, 4.5 mM KCl, 10 mM HEPES, 10 mM Glucose, 2 mM CaCl2).
Chloride Free Buffer consisted of 1 mM Magnesium Gluconate, 2 mM Calcium Gluconate, 4.5 mM Potassium Gluconate, 160 mM Sodium Gluconate, 10 mM HEPES, 10 mM Glucose.
Bath1 Dye Solution consisted of Bath 1 Buffer, 0.04% Pluronic F127, 20 μM Methyl Oxonol, 30 μM CaCCinh-A01, 30 μM Chicago Sky Blue. […]
Enteroid cells were incubated with test compound in IEMM for 18-24 h at 37° C., 95% humidity and 5% CO2. […] Chloride transport was initiated by addition of Chloride Free Dye Stimulation Solution and the fluorescence signal was read for 15 min. […] Chloride transport was then expressed as a percentage of the chloride transport following treatment with 3 μM Compound I, 3 μM Compound II, and 300 nM acute Compound III triple combination control (% Activity). […]

In series [3] the target is T1, F508del CFTR (Homo sapiens, UniProt P13569, DEL508-508).
T1 construct: HBE cells derived from 3 F508del homozygous donors and 5 F508del/MF donors; endogenous in cells; host or cells: primary HBE cells from F508del/F508del and F508del/MF donors
T1 sequence (P13569 with tags, fused parts or gaps DEL508-508): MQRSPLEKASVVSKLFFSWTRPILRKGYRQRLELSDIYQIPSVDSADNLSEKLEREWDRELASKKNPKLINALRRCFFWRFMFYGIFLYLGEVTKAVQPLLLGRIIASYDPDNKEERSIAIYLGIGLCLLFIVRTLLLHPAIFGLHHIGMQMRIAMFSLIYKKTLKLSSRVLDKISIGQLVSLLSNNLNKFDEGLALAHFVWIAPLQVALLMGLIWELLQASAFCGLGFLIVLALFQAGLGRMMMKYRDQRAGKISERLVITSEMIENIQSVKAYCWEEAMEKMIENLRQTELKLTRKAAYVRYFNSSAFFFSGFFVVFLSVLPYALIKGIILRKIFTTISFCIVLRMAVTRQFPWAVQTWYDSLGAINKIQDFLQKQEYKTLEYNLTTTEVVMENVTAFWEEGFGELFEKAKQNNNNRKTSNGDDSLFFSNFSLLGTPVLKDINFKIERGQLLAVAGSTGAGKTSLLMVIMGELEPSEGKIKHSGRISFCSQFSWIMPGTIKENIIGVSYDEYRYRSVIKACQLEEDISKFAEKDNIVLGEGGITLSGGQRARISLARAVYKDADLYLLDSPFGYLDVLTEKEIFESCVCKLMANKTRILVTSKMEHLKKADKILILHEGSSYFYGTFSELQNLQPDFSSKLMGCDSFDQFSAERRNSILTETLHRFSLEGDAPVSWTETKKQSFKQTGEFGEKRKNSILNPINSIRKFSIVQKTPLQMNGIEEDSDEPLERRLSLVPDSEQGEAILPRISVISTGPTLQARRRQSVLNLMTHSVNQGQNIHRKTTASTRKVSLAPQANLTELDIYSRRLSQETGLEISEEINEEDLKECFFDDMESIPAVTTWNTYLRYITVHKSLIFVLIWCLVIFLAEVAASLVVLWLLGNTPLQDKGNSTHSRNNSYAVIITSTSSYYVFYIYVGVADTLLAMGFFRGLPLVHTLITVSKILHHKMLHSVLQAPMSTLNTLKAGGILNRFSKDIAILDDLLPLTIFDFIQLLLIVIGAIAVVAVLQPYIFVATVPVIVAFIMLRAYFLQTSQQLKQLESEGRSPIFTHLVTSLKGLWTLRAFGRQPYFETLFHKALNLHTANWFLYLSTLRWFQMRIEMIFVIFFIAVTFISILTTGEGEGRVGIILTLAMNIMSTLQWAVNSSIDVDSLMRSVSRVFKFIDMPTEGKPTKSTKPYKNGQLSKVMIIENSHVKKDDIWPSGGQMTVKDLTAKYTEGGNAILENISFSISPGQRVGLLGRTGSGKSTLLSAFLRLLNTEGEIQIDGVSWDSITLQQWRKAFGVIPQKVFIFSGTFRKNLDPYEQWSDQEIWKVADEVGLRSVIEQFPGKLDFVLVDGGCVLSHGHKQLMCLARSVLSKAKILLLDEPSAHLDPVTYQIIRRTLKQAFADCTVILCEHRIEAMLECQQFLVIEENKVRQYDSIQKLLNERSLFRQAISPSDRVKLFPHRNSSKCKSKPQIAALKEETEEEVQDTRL
Briefly: Ussing chamber chloride transport in F508del/F508del HBE cells. It is filed as cell-based. Conditions: for chloride transport (effect in words): Compound I alone 16 to 24 h, Compound III added in the presence of Compound I or Compound I/Compound II. The procedure: (§1) Ussing chamber studies were conducted to measure F508del CFTR-mediated chloride transport in HBE cells derived from 3 F508del homozygous donors and 5 F508del/MF donors (G542X, 3 donors; E585X, 1 donor; 3905InsT, 1 donor). As a positive control, maximally effective concentrations of N-(benzenesulfonyl)-6-[3-[2-[1-(trifluoromethyl)cyclopropyl]ethoxy]pyrazol-1-yl]-2-[(4S)-2,2,4-trimethylpyrrolidin-1-yl]pyridine-3-carboxamide (see WO 2018/064632) and N-[(6-amino-2-pyridyl)sulfonyl]-6-(3-fluoro-5-isobutoxy-phenyl)-2-[(4S)-2,2,4-trimethylpyrrolidin-1-yl]pyridine-3-carboxamide (see WO 2016/057572) in combination with Compound II/Compound III were included in each experiment.
(§2) In these CF cell lines, CFTR-mediated chloride transport was low in the absence of CFTR modulators, which is consistent with little-to-no CFTR at the cell surface. […] However, the efficacy of Compound I/Compound III and Compound I/Compound II/Compound III was similar at their respective EC90 values.

Series [4] has as its target T1, F508del CFTR. Briefly: Ussing chamber chloride transport in F508del/MF HBE cells. It counts as cell-based. The conditions noted are these: for chloride transport (effect in words): Compound I alone 16 to 24 h, Compound III added in the presence of Compound I or Compound I/Compound II. The procedure: as §1, §2
Series [5] in a line: Pharmacokinetics after a single oral administration in male rats. It counts as in vivo. The procedure: (§3) Following a single oral administration of Compound I in male animals, Compound I mean tmax values were 9 h in rats, 4 h in dogs, and 3 h in monkeys.
Series [6] is described as follows: Pharmacokinetics after a single oral administration in male dogs. It counts as in vivo. Conditions: nominal dose 1 mg/kg. The procedure: as §3
The nature of series [7]: Pharmacokinetics after a single oral administration in male monkeys. It is filed as in vivo. The conditions noted are these: nominal dose 1 mg/kg, oral bioavailability. The procedure:
as §3

Series [8] can be described thus: Systemic exposure with increasing dose and repeated oral administration for 28 d in rats. It is filed as in vivo. The procedure: (§4) Following repeated oral administration of Compound I for 28 d in rats and dogs, accumulation of Compound I exposure was observed. Systemic exposure to Compound I on Day 28 was higher than on Day 1 (Day 28/Day 1 AUC024h ratio ranged from 1.63 to 2.70 in male rats, 5.01 to 8.26 in female rats, 1.73 to 2.64 in male dogs, and 1.82 to 2.23 in female dogs).

The nature of series [9]: Systemic exposure with increasing dose and repeated oral administration for 28 d in dogs. It counts as in vivo. The conditions noted are these: as the dose increased. The procedure: as §4
The nature of series [10]: Safety analysis of ongoing clinical study (Cohorts A1 to A5, B, C). It is filed as in vivo, human. The procedure: A safety analysis of an ongoing clinical study was performed for 37 subjects in Cohorts A1 to A5, 33 subjects in Cohort B, and 17 subjects in Cohort C, who were exposed to at least 1 dose of study drug (Compound I or placebo) as a monotherapy and as part of a triple combination with Compound II or Compound III.

The mark [11] stands for this setting: with a fixed combination of Compound II.
The mark [12] stands for this setting: with a fixed concentration of Compound III or Compound II/Compound III.

Chain of CFTR-mediated chloride transport (P13569 whole entry): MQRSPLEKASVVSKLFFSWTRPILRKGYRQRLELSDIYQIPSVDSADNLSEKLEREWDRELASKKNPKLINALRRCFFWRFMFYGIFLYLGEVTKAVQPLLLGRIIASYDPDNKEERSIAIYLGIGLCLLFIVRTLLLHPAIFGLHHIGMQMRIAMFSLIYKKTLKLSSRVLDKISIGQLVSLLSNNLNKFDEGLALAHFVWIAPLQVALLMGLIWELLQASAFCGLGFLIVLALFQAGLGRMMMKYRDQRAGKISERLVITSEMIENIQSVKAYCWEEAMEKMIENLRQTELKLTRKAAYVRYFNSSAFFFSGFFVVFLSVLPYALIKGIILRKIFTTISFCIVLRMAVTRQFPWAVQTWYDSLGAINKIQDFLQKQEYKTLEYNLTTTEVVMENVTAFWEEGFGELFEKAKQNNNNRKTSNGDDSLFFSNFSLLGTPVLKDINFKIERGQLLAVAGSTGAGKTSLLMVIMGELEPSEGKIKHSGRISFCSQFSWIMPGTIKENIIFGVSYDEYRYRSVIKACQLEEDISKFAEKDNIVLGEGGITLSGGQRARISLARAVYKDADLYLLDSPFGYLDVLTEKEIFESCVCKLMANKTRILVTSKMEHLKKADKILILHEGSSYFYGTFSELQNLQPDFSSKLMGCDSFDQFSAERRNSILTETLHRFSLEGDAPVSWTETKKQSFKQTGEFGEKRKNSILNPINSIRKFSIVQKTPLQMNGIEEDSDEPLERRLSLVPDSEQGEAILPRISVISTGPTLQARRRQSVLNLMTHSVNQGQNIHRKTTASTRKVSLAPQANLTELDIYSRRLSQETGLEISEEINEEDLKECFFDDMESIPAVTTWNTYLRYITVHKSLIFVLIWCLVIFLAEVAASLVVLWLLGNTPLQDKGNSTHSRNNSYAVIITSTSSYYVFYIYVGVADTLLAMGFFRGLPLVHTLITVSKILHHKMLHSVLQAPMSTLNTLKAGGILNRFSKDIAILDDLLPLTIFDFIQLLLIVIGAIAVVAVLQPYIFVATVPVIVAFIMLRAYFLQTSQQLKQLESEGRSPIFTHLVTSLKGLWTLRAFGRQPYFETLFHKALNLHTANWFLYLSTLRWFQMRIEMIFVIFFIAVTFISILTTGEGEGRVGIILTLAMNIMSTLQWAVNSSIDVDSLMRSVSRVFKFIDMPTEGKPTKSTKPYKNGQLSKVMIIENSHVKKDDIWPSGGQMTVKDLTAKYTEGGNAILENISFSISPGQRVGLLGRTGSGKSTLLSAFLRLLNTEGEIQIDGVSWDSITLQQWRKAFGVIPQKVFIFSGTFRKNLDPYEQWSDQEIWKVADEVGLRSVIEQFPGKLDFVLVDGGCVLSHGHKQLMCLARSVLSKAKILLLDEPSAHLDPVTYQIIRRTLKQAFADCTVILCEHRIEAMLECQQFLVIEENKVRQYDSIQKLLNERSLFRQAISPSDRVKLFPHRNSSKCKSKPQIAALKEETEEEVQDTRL

Consider `CC1(C)C[C@@H]2CCCNc3cccc(n3)S(=O)(=O)NC(=O)c3ccc(-n4ccc(OCCC5C6(CC6)C56CC6)n4)nc3N1C2` [Compound I free Form A], for which the relative polymorphic stability result in series [1] is on record as “most stable polymorphic form”.
As for `CC1(C)C[C@@H]2CCCNc3cccc(n3)S(=O)(=O)NC(=O)c3ccc(-n4ccc(OCCC5C6(CC6)C56CC6)n4)nc3N1C2` [Compound I, (14S)-8-[3-(2-{Dispiro[2.0.2.1]heptan-7-yl}ethoxy)-1H-pyrazol-1-yl]-12,12-dimethyl-2λ6-thia-3,9,11,18,23-pentaazatetracyclo[17.3.1.111,14.05,10]tetracosa-1(22),5,7,9,19(23),20-hexaene-2,2,4-trione], in [2], the concentration giving a half-maximal response (EC50) was less than 1000 nM. For the same compound, the “Max. Activity” value in series [2] (% of chloride transport with 3 μM Compound I, 3 μM Compound II, 300 nM acute Compound III control) is given as “+++ (+++ is >60%)”. For the same compound, the “chloride transport (effect in words)” value in [3] and in series [4] was “modest increase in chloride transport” each time. For the same compound, the synergy analysis entry is reported as “modestly synergistic” in series [3] (setting [11]), “highly synergistic” in [3] (setting [12]), “modestly synergistic” in series [4] (setting [11]) and “highly synergistic” in series [4] (setting [12]). For the same compound, the F worked out at 76.9% in series [5] (nominal dose 3 mg/kg, oral bioavailability); 49.7% in series [6] (oral bioavailability); 12.9% in [7]. Further, the bioavailability in series [5] (rat, in vivo, 3 mg/kg, read-out: Mean oral bioavailability (F)) came out at 76.9%. This compound also gave a tmax in [6] (mean ± SD (n = 3)) of 4.00 ± 0.00 h. In addition, the “Dosenormalized exposure, sex difference” value in [8] was “higher in female rats than male rats”. Also, the “increase of systemic exposure with dose” value in series [8] (as the dose increased) and in series [9] was “more than doseproportional” each time. Also, the safety and tolerability result in series [10] (up to 20 mg qd in triple combination with Compound II and Compound III) was “generally safe and well-tolerated”; in [10] (up to a dose of 60 mg qd in monotherapy), “generally safe and well-tolerated”.
In the case of `CC(C)(C)c1cc(C(C)(C)C)c(NC(=O)c2c[nH]c3ccccc3c2=O)cc1O` [Compound III, N-[2,4-bis(1,1-dimethylethyl)-5-hydroxyphenyl]-1,4-dihydro-4-oxoquinoline-3-carboxamide, reference compound], the “chloride transport (effect in words)” value in series [3] and in series [4] was “strongly potentiated chloride transport” throughout.
